What was measured:
IL-1β = experiment: LPS-induced IL-1β expression (RT-PCR); assay type: cell-based, murine; settings: RAW 264.7 cells, pretreated at different concentrations, LPS 4 hours
Experimental: (§1) The expression level of iNOS, COX-2 and IL-1β which are known as inflammation-inducing factors was measured.
(§2) In order to investigate the effect of 5-adamantan-1-yl-N-(2,4-dihydroxybenzyl)-2,4-dimethoxybenzamide on inhibition of iNOS, COX-2 and IL-1β expression in RAW 264.7 cells, the cells were pretreated with 5-adamantan-1-yl-N-(2,4-dihydroxybenzyl)-2,4-dimethoxybenzamide at different concentrations and then RT-PCR was conducted after treating with LPS for 4 hours.

iNOS = experiment: LPS-induced iNOS expression (RT-PCR); assay type: cell-based, murine; settings: RAW 264.7 cells, pretreated at different concentrations, LPS 4 hours
Experimental: as §1, §2

[1] = system: NO production in RAW 264.7 cells; experiment: NO production in LPS-treated cells (Griess test); assay type: cell-based, murine; settings: 0-30 μM for 30 minutes, then LPS (1 μg/mL) 24 hours, vs group treated only with LPS
Experimental: (§3) RAW 264.7 cells (murine macrophage cell line) (ATCC, Rockville, Md., USA) and HEK 293 cells were cultured in RPMI 1640 medium supplemented with FBS (10% heat-inactivated fetal bovine serum; Gibco, Grand Island, N.Y., USA), glutamine and antibiotics (penicillin and streptomycin) at 37° C. under 5% CO2.
(§4) RAW 264.7 cells (1×10^6 cells/well) that had been preincubated for 18 hours were treated with 5-adamantan-1-yl-N-(2,4-dihydroxybenzyl)-2,4-dimethoxybenzamide (hereinafter, ‘AP736’) at concentrations of 0-30 μM for 30 minutes and then incubated for 6 hours or 24 hours with LPS (1 μg/mL). The supernatant was recovered after the incubation. The cells incubated for 6 hours were subjected to PGE2 analysis and those incubated for 24 hours were subjected to NO analysis. The NO concentration in the culture medium was measured by the Griess test (Promega, Madison, Wis., USA). And, the concentration of PGE2 released to the culture medium was measured using an EIA kit (Amersham, Little Chalfont, Buckinghamshire, UK).

COX-2 = experiment: LPS-induced COX-2 expression (RT-PCR); assay type: cell-based, murine; settings: RAW 264.7 cells, pretreated at different concentrations, LPS 4 hours
Experimental: as §1, §2

NF-κB = NF-κB luciferase reporter gene assay; assay type: cell-based; settings: HEK 293 cells, NF-κB-Luc, MyD88 or TRIF cotransfected, 8 hours
Experimental: as §3
(§5) The activity of transcription factors can be tested by the luciferase reporter gene assay. It is known that the activity of NF-κB and AP-1 is induced by the TLR adapter protein. NF-κB and AP-1 are known to produce the inflammatory factors NO and PGE2.
(§6) HEK 293 cells (1×10^6 cells/well) were cotransfected with 1 μg of a plasmid containing NF-κB-Luc (luciferase) and AP-1-Luc constructs. The transfection was conducted on a 12-well plate by the PEI method. After 48 hours, the transformed cells were used for experiment. MyD88 or TRIF (1 μg/mL each), which are known as TLR adapter proteins, were cotransfected for 8 hours together with 5-adamantan-1-yl-N-(2,4-dihydroxybenzyl)-2,4-dimethoxybenzamide (5-adamantan-1-yl-N-(2,4-dihydroxybenzyl)-2,4-dimethoxybenzamide is denoted as ‘AP736’ in FIG. 5). The luciferase reporter gene assay was performed using the luciferase assay system (Promega, Madison, Wis.).

AP-1 = AP-1 luciferase reporter gene assay; assay type: cell-based; settings: HEK 293 cells, AP-1-Luc, MyD88 or TRIF cotransfected, 8 hours
Experimental: as §3, §5, §6

RAW 264.7 cells = experiment: Cytotoxicity by MTT method; assay type: cell-based
Experimental: as §3
In all experiments, the cells were detached with a cell scraper. When the cells were cultured to a density of 2×10^6 cells/mL, the ratio of dead cells was 1% or lower (determined by the trypan blue dye exclusion method)
During subculturing, RAW 264.7 cells were plated on a well plate to a concentration of 1×10^6 cells/well. After culturing for 18 hours, the cells were treated with 5-adamantan-1-yl-N-(2,4-dihydroxybenzyl)-2,4-dimethoxybenzamide (denoted as ‘AP736’ in FIG. 1) at concentrations of 0-30 μM. Then, the cells were cultured in an incubator for 8 hours or 24 hours. Cytotoxicity was evaluated by the commonly used MTT method. 3 hours before the last culturing, 10 μL of an MTT (3-[4,5-dimethylthiazol-2-yl]-2,5-diphenyltetrazolium bromide) solution (10 mg/mL in phosphate-buffered saline, pH 7.4) was added to each well. After terminating reaction by adding 15% SDS (sodium dodecyl sulfate) to each well, the formed formazan crystals were dissolved. Then, absorbance was measured at 570 nm on a microplate reader.

[2] = system: PGE2 production in RAW 264.7 cells; experiment: PGE2 production in LPS-treated cells (EIA kit); assay type: cell-based, murine; settings: 0-30 μM for 30 minutes, then LPS (1 μg/mL) 6 hours, vs group treated only with LPS
Experimental: as §3, §4

Question: How did the “expression of the mRNAs and proteins of IL-1β induced by LPS” value (IL-1β) turn out when `COc1cc(OC)c(C23CC4CC(CC(C4)C2)C3)cc1C(=O)NCc1ccc(O)cc1O` [5-adamantan-1-yl-N-(2,4-dihydroxybenzyl)-2,4-dimethoxybenzamide] was run?
Answer: distinctly inhibited

Question: What about the “expression of the mRNAs and proteins of iNOS induced by LPS” value (iNOS) of the same compound?
Answer: distinctly inhibited

Question: And the NO production [1]?
Answer: statistically significant decrease in NO production with increasing concentration

Question: And the “expression of the mRNAs and proteins of COX-2 induced by LPS” value (COX-2)?
Answer: distinctly inhibited

Question: What about the “activity of NF-κB” value (NF-κB) of the same compound?
Answer: decreased activity

Question: What about the “activity of AP-1” value (AP-1) of the same compound?
Answer: decreased activity

Question: And the cell viability (RAW 264.7 cells; 10 μM, treated for 8 hours)?
Answer: 100%

Question: And the cell viability (RAW 264.7 cells; 10 μM, treated for 24 hours)?
Answer: 100%

Question: And the cell viability (RAW 264.7 cells; 20 μM, treated for 8 hours)?
Answer: 100%

Question: What about the cell viability (RAW 264.7 cells; 20 μM, treated for 24 hours) of the same compound?
Answer: 100%

Question: What about the cell viability (RAW 264.7 cells; 30 μM, cultured for 24 hours) of the same compound?
Answer: ~80%

Question: What about the “concentration of PGE2” value [2] of the same compound?
Answer: decreased as compared to the group treated only with LPS with increasing concentration
